Source: ChEMBL document CHEMBL3991601, “The target landscape of clinical kinase drugs” (Science, 2017)
pKd: −log10 of the molar value. The source made the active and inactive calls.

Experiments:
[1] = target: Dual specificity protein kinase CLK2 (Homo sapiens, UniProt P49760)
[2] = target: Obg-like ATPase 1 (Homo sapiens, UniProt Q9NTK5)
[3] = target: Cyclin-dependent kinase 17 (Homo sapiens, UniProt Q00537)
[4] = target: Serine/threonine-protein kinase PAK 6 (Homo sapiens, UniProt Q9NQU5)
[5] = target: Myosin-10 (Homo sapiens, UniProt P35580)
[6] = target: Serine/threonine-protein kinase pim-2 (Homo sapiens, UniProt Q9P1W9)
[7] = target: Serine/threonine-protein kinase Nek7 (Homo sapiens, UniProt Q8TDX7)
[8] = target: T1, ATP-dependent RNA helicase DHX30 (Homo sapiens, UniProt Q7L2E3)
T1 sequence (Q7L2E3 whole entry): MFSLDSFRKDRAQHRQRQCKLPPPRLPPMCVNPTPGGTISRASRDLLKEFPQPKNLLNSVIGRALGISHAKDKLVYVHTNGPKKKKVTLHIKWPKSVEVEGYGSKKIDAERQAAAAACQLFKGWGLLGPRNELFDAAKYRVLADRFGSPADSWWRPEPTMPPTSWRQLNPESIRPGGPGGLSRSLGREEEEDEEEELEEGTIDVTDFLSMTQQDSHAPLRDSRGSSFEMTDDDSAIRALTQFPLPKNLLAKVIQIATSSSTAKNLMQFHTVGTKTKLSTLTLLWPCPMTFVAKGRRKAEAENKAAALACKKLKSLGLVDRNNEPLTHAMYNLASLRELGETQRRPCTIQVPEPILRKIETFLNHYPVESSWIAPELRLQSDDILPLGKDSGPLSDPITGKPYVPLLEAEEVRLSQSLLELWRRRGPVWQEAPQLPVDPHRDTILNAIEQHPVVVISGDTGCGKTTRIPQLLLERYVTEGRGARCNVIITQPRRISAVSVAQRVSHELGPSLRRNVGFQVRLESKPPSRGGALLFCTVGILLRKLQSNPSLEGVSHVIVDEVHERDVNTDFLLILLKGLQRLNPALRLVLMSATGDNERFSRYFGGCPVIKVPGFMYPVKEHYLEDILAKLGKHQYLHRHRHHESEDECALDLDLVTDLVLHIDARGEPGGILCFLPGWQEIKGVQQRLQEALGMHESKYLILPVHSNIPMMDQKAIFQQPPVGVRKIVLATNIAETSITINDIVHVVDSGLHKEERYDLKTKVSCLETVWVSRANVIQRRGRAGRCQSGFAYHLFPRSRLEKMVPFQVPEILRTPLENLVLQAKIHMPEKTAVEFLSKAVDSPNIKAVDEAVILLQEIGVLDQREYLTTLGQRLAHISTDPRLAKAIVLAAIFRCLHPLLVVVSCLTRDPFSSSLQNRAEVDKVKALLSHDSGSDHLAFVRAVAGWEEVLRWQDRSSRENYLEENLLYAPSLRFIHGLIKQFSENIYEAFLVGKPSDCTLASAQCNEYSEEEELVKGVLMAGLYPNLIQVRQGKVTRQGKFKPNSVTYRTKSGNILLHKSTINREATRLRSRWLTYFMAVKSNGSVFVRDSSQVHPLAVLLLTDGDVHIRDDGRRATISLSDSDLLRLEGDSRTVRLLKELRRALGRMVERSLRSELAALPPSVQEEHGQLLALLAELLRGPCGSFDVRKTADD

[9] = target: T2, Ephrin type-A receptor 1 (Homo sapiens, UniProt P21709)
T2 sequence (P21709 whole entry): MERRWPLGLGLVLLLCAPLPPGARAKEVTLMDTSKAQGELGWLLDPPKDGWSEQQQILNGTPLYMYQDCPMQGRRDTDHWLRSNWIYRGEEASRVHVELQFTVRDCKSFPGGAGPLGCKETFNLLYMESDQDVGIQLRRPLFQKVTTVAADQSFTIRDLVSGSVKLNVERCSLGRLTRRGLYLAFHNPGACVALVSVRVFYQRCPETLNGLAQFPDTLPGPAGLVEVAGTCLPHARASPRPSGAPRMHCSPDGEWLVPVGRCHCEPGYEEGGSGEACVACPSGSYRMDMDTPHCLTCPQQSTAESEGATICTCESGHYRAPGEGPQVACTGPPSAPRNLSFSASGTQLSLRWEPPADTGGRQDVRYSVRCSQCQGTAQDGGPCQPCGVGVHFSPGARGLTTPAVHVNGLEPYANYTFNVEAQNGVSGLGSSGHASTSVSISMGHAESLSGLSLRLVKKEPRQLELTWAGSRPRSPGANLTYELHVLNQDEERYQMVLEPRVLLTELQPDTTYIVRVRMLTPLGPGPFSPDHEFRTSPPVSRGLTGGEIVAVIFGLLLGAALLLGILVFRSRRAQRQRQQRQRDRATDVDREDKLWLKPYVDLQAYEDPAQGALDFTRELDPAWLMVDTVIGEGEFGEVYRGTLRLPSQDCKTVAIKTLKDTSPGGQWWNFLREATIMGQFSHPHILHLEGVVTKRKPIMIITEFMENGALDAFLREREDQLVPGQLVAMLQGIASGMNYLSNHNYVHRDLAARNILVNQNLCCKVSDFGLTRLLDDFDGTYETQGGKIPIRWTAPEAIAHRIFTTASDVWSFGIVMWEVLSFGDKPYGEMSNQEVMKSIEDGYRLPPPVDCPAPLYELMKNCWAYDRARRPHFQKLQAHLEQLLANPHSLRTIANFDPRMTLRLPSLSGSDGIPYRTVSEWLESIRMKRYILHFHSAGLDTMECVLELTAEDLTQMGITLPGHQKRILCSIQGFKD

[10] = target: Cell division cycle 7-related protein kinase (Homo sapiens, UniProt O00311)
[11] = target: Serine/threonine-protein kinase 24 (Homo sapiens, UniProt Q9Y6E0)
[12] = target: Choline-phosphate cytidylyltransferase A (Homo sapiens, UniProt P49585)
[13] = target: G protein-coupled receptor kinase 6 (Homo sapiens, UniProt P43250)
[14] = target: Phosphatidylethanolamine-binding protein 1 (Homo sapiens, UniProt P30086)
[15] = target: Misshapen-like kinase 1 (Homo sapiens, UniProt Q8N4C8)
Further: in the data inactive means no Kd found up to 30 µM.

Dual specificity protein kinase CLK2, sequence (P49760 whole entry): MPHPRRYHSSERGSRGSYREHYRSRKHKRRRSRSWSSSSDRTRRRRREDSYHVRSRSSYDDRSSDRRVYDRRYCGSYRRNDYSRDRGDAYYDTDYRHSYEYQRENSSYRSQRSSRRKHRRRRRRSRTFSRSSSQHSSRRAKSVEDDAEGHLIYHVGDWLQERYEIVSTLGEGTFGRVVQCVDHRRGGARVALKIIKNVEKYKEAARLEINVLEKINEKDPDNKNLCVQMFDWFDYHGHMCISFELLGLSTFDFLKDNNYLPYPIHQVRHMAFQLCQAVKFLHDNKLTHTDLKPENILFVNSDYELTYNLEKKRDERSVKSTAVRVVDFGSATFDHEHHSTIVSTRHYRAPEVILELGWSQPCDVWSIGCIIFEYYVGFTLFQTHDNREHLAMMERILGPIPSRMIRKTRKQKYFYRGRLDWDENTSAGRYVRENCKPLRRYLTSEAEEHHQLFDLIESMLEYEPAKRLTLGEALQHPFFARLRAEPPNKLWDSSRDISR
Serine/threonine-protein kinase 24, sequence (Q9Y6E0 whole entry): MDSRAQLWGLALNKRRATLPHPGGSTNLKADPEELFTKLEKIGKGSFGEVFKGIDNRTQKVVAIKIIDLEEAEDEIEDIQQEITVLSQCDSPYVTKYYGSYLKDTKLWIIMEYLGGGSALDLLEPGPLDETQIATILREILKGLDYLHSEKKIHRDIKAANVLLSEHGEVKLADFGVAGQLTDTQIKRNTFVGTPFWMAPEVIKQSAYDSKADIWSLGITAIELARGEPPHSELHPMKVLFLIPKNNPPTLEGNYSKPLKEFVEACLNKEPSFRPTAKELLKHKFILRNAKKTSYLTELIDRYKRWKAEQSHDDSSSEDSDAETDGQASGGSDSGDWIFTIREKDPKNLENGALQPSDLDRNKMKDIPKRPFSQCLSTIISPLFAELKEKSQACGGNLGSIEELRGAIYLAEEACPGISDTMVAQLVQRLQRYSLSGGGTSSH
Cyclin-dependent kinase 17, sequence (Q00537 whole entry): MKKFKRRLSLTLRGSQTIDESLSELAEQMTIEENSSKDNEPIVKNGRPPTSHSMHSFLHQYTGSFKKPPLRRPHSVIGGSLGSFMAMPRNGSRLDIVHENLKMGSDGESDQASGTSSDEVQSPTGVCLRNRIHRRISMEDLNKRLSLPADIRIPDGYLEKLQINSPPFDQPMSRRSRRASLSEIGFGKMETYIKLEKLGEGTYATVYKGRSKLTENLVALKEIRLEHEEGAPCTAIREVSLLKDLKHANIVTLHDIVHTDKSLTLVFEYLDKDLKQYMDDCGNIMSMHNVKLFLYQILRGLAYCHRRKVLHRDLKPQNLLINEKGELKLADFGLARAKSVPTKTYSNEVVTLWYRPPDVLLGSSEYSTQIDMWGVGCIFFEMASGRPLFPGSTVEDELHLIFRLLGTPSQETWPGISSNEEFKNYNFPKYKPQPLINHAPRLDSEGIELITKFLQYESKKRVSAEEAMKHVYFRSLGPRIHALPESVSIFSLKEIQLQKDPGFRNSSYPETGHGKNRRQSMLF
Obg-like ATPase 1, sequence (Q9NTK5 whole entry, looked up): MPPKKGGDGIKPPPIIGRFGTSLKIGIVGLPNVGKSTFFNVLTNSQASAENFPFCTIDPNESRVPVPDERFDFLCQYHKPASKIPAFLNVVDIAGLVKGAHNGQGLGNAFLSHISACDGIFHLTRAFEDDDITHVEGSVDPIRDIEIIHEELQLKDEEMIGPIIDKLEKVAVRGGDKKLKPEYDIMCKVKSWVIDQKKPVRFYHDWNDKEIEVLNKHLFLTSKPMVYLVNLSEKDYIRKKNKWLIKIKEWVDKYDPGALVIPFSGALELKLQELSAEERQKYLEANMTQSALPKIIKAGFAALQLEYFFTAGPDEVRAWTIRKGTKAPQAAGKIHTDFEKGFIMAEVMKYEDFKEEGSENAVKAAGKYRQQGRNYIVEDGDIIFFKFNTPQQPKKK
Myosin-10, sequence (P35580 whole entry): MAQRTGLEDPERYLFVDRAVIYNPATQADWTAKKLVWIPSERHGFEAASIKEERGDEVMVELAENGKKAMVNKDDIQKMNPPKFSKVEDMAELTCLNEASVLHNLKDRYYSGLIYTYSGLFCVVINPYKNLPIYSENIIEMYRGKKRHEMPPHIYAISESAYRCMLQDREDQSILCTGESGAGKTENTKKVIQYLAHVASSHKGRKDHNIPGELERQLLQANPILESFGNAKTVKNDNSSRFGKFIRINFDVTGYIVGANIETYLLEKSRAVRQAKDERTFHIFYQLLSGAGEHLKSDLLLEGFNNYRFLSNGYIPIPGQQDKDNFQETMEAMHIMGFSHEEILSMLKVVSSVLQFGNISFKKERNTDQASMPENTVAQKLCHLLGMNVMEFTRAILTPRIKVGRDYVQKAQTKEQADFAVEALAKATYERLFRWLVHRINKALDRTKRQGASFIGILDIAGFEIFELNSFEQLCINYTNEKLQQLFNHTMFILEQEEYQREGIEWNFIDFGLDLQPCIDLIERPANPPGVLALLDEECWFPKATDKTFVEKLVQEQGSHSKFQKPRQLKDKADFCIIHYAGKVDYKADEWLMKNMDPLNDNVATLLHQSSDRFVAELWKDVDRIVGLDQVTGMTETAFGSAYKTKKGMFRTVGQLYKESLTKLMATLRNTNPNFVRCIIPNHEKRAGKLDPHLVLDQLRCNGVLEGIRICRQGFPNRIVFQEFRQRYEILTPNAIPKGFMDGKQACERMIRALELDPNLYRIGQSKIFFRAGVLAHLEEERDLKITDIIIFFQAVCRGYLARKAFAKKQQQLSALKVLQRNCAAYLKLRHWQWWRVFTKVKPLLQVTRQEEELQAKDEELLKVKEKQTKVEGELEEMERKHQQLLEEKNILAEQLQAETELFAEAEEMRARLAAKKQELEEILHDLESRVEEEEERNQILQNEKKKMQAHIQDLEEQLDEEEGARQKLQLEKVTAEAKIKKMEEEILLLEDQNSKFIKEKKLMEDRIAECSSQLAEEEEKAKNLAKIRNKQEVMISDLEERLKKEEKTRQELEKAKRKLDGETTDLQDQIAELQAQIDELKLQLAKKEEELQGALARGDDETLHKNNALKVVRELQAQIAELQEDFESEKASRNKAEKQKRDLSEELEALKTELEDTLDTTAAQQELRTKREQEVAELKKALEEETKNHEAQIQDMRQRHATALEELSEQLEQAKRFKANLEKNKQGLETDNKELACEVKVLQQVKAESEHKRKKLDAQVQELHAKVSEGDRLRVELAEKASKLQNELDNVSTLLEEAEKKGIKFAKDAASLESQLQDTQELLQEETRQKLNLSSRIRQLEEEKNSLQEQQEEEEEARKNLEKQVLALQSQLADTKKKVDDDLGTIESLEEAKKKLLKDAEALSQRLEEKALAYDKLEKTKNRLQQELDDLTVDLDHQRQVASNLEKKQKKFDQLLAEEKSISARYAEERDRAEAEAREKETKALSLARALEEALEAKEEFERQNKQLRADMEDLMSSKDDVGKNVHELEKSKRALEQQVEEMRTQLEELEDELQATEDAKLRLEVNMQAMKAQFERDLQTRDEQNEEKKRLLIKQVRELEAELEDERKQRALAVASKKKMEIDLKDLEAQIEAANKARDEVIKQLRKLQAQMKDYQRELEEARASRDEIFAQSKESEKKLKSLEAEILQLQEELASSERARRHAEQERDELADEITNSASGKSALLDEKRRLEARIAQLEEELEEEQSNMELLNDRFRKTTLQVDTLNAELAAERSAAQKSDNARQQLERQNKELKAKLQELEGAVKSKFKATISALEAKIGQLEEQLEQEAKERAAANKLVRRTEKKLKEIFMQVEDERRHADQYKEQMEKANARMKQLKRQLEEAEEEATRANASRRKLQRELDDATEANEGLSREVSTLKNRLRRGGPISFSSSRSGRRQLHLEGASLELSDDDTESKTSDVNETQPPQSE
Serine/threonine-protein kinase PAK 6, sequence (Q9NQU5 whole entry): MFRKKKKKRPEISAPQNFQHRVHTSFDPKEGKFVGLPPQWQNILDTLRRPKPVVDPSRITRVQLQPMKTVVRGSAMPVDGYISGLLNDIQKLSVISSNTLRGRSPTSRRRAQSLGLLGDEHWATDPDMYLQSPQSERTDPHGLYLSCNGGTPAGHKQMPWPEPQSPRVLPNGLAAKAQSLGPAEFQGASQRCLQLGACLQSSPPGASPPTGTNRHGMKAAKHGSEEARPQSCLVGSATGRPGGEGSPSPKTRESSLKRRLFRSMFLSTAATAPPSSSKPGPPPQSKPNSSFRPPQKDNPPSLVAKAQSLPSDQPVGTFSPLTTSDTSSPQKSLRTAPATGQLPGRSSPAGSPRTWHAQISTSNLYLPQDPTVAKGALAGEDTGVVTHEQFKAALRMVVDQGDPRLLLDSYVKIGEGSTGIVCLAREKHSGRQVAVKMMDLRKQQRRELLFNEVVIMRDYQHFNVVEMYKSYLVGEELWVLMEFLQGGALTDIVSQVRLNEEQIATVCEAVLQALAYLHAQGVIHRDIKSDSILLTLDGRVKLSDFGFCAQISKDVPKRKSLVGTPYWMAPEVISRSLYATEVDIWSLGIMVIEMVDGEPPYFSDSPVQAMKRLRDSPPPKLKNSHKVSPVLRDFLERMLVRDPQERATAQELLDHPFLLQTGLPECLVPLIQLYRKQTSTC
Phosphatidylethanolamine-binding protein 1, sequence (P30086 whole entry): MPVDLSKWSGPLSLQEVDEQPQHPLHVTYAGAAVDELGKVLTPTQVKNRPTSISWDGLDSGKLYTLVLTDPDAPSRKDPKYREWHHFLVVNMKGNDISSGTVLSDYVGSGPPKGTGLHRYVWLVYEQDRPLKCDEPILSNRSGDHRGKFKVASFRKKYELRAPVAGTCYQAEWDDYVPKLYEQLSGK
Serine/threonine-protein kinase pim-2, sequence (Q9P1W9 whole entry): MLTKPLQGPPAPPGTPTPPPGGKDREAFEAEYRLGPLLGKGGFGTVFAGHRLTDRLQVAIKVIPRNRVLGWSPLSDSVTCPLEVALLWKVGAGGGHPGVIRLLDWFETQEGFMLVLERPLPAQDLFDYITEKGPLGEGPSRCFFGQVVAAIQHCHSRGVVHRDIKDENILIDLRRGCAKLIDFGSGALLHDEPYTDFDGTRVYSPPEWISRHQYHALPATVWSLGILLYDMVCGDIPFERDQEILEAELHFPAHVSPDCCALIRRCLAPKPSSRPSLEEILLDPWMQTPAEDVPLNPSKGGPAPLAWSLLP

SMILES	Kd [1]	Kd [2]	Kd [3]	Kd [4]	Kd [5]	Kd [6]	Kd [7]	Kd [8]	Kd [9]	Kd [10]	Kd [11]	Kd [12]	Kd [13]	Kd [14]	Kd [15]	pKd [14]	pKd [7]
Cc1cc(-c2cc(O)ccc2Cl)cc2nnc(Nc3ccc(OCCN4CCCC4)cc3)nc12	> 30 µM (inactive)	> 30 µM (inactive)	> 30 µM (inactive)	> 30 µM (inactive)	> 30 µM (inactive)	> 30 µM (inactive)	> 30 µM (inactive)	> 30 µM (inactive)	> 30 µM (inactive)	> 30 µM (inactive)	> 30 µM (inactive)	–	–	–	–	–	–
CCN1CCN(Cc2ccc(-c3cc4c(N[C@H](C)c5ccccc5)ncnc4[nH]3)cc2)CC1 [AEE-788]	> 30 µM (inactive)	> 30 µM (inactive)	> 30 µM (inactive)	> 30 µM (inactive)	–	> 30 µM (inactive)	> 30 µM (inactive)	> 30 µM (inactive)	> 30 µM (inactive)	> 30 µM (inactive)	> 30 µM (inactive)	> 30 µM (inactive)	> 30 µM (inactive)	> 30 µM (inactive)	–	–	–
COc1cc(N2CCC(N3CCN(C)CC3)CC2)ccc1Nc1ncnc(Nc2ccccc2S(=O)(=O)C(C)C)n1 [ASP-3026]	> 30 µM (inactive)	–	> 30 µM (inactive)	> 30 µM (inactive)	–	> 30 µM (inactive)	–	–	–	–	> 30 µM (inactive)	> 30 µM (inactive)	> 30 µM (inactive)	> 30 µM (inactive)	> 30 µM (inactive)	–	–
COc1ccc(-c2ccc3c(N4CCOC[C@@H]4C)nc(N4CCOC[C@@H]4C)nc3n2)cc1CO [AZD-8055]	> 30 µM (inactive)	> 30 µM (inactive)	> 30 µM (inactive)	> 30 µM (inactive)	> 30 µM (inactive)	> 30 µM (inactive)	> 30 µM (inactive)	> 30 µM (inactive)	> 30 µM (inactive)	–	> 30 µM (inactive)	–	> 30 µM (inactive)	> 30 µM (inactive)	> 30 µM (inactive)	–	–
COC(=O)[C@@]1(O)C[C@H]2O[C@]1(C)n1c3ccccc3c3c4c(c5c6ccccc6n2c5c31)C(=O)NC4 [K-252A]	3.81 µM (active)	–	> 30 µM (inactive)	> 30 µM (inactive)	–	> 30 µM (inactive)	–	> 30 µM (inactive)	> 30 µM (inactive)	–	> 30 µM (inactive)	–	–	–	> 30 µM (inactive)	–	8.52
Cc1ccc(-n2nc(C(C)(C)C)cc2NC(=O)NCc2cc(F)ccc2Oc2ccc3c(cnn3CCO)c2)cc1 [PEXMETINIB]	> 30 µM (inactive)	> 30 µM (inactive)	0.402 µM (active)	> 30 µM (inactive)	> 30 µM (inactive)	> 30 µM (inactive)	> 30 µM (inactive)	> 30 µM (inactive)	2.64 µM (active)	> 30 µM (inactive)	> 30 µM (inactive)	> 30 µM (inactive)	> 30 µM (inactive)	> 30 µM (inactive)	> 30 µM (inactive)	–	–
CN(C)C(=O)c1cc2cnc(Nc3ccc(N4CCNCC4)cn3)nc2n1C1CCCC1 [RIBOCICLIB]	–	> 30 µM (inactive)	–	–	–	> 30 µM (inactive)	> 30 µM (inactive)	> 30 µM (inactive)	> 30 µM (inactive)	–	> 30 µM (inactive)	> 30 µM (inactive)	> 30 µM (inactive)	> 30 µM (inactive)	–	–	–
COc1cc2nccc(Oc3ccc(NC(=O)Nc4cc(C)on4)c(Cl)c3)c2cc1OC [TIVOZANIB]	> 30 µM (inactive)	> 30 µM (inactive)	> 30 µM (inactive)	> 30 µM (inactive)	> 30 µM (inactive)	> 30 µM (inactive)	> 30 µM (inactive)	–	> 30 µM (inactive)	–	> 30 µM (inactive)	> 30 µM (inactive)	> 30 µM (inactive)	–	> 30 µM (inactive)	8.52	–

The next lines start with results.

Kd [1]	Kd [2]	Kd [3]	Kd [4]	Kd [5]	Kd [6]	Kd [7]	Kd [8]	Kd [9]	Kd [10]	Kd [11]	Kd [12]	Kd [13]	Kd [14]	Kd [15]	pKd [14]	SMILES	pKd [7]
–	–	> 30 µM (inactive)	> 30 µM (inactive)	–	> 30 µM (inactive)	> 30 µM (inactive)	> 30 µM (inactive)	> 30 µM (inactive)	> 30 µM (inactive)	–	–	–	> 30 µM (inactive)	–	–	Cn1ncc(Cl)c1-c1cc(C(=O)N[C@H](CN)Cc2cccc(F)c2)sc1Cl [AFURESERTIB]	–
–	> 30 µM (inactive)	> 30 µM (inactive)	> 30 µM (inactive)	> 30 µM (inactive)	> 30 µM (inactive)	> 30 µM (inactive)	> 30 µM (inactive)	> 30 µM (inactive)	> 30 µM (inactive)	–	–	–	> 30 µM (inactive)	> 30 µM (inactive)	–	CNC(=O)c1ccc(-c2cnc3ncc(Cc4ccc5ncccc5c4)n3n2)cc1F [CAPMATINIB]	–
–	> 30 µM (inactive)	–	> 30 µM (inactive)	> 30 µM (inactive)	> 30 µM (inactive)	> 30 µM (inactive)	–	> 30 µM (inactive)	–	> 30 µM (inactive)	> 30 µM (inactive)	> 30 µM (inactive)	> 30 µM (inactive)	> 30 µM (inactive)	–	CCc1cnn2c(NCc3ccc[n+]([O-])c3)cc(N3CCCC[C@H]3CCO)nc12 [DINACICLIB]	–
–	> 30 µM (inactive)	–	–	–	> 30 µM (inactive)	–	–	> 30 µM (inactive)	–	> 30 µM (inactive)	–	–	> 30 µM (inactive)	> 30 µM (inactive)	–	Cn1cc(-c2ccc(F)c(C(F)(F)F)c2)nc1C1CCN(c2ncnc3[nH]ncc23)CC1 [LY-2584702]	–
> 30 µM (inactive)	> 30 µM (inactive)	> 30 µM (inactive)	–	> 30 µM (inactive)	> 30 µM (inactive)	> 30 µM (inactive)	–	> 30 µM (inactive)	–	–	–	> 30 µM (inactive)	> 30 µM (inactive)	–	–	CCCS(=O)(=O)Nc1ccc(F)c(C(=O)c2c[nH]c3ncc(-c4ccc(Cl)cc4)cc23)c1F [VEMURAFENIB]	–
